Laboratory results taken from US10617755B2, “Combination therapy for the treatment of glioblastoma” (Genentech, Inc., priority 2013, dated 2020).

What was measured:
[1] = system: newly diagnosed glioblastoma; test: AvaGlio Phase III trial: bevacizumab plus temozolomide and radiotherapy versus placebo plus temozolomide and radiotherapy; assay type: in vivo, human; settings: known prognostic covariates considered
[2] = system: newly diagnosed glioblastoma; test: as above; assay type: in vivo, human; settings: for OS hazard ratio (HR), multivariate Cox proportional hazard model: adjusted for prognostic covariates; for OS benefit, multivariate analysis (result in words): known prognostic covariates considered
Source text: The AvaGlio trial evaluated the efficacy and safety of bevacizumab in combination temozolomide and radiotherapy for newly diagnosed glioblastoma. This study was designed as a prospective, randomized, double blind, placebo controlled Phase III evaluation of bevacizumab plus chemotherapy versus chemotherapy alone. To be eligible, patients must have had newly diagnosed glioblastoma with a tissue diagnosis that has been established following either a surgical resection or biopsy. By adding bevacizumab to chemotherapy and radiotherapy, the AvaGlio trial aimed to improve overall survival (OS) and progression-free survival (PFS) for this group of patients who had limited therapeutic options and faced a particularly poor prognosis. The primary objective was to compare OS and PFS of patients randomized to temozolomide (TMZ) and radiotherapy only or to temozolomide and radiotherapy plus bevacizumab.
This trial consisted of three phases (Concurrent, Maintenance, and Monotherapy) and two (2) treatment arms: TMZ and radiotherapy (RT) (Arm 1), and TMZ and RT plus bevacizumab (Arm 2). Patients were randomly assigned (1:1) to either arm.
Arm 1 (chemotherapy and radiotherapy alone): Eligible patients received 2 Gy RT 5 days a week for 6 weeks and 75 mg/m^2 TMZ orally daily for 6 weeks from the first day to the last day of RT in combination with 10 mg/kg placebo i.v. every 2 weeks. After a 4-week treatment break, eligible patients received 6 cycles of 150-200 mg/m^2 TMZ on days 1-5 of an every-4-week schedule in combination with 10 mg/kg placebo i.v. every 2 weeks. TMZ was administered orally starting with a 150 mg/m^2 dose that could be escalated. Placebo monotherapy (15 mg/kg every 3 weeks) was then continued until disease progression. Upon disease progression, patients were treated at the investigator's discretion.
Arm 2 (chemotherapy and radiotherapy plus bevacizumab): Eligible patients received 2 Gy RT 5 days a week for 6 weeks and 75 mg/m^2 TMZ orally daily for 6 weeks from the first day to the last day of RT in combination with 10 mg/kg bevacizumab i.v. every 2 weeks. After a 4-week treatment break, eligible patients received 6 cycles of 150-200 mg/m^2 TMZ on days 1-5 of an every-4-week schedule in combination with 10 mg/kg bevaciumab i.v. every 2 weeks. TMZ was administered orally starting with a 150 mg/m^2 dose that could be escalated. Bevaciazumab monotherapy (15 mg/kg every 3 weeks) was then continued until disease progression. Upon disease progression, patients were treated at the investigator's discretion.
The initial bevacizumab infusion was over 90 minutes, with subsequent infusions over 60 minutes and then 30 minutes, as tolerated. Bevacizumab was administered on the last day of RT and TMZ treatment, i.e., the day before the start of the TMZ treatment break.
Analyses of PFS were based on tumor assessments MacDonald Response Criteria (modified WHO criteria) using MRI of the brain and a neurological evalution as described in Macdonald et al. (J. Clin. Oncol. 8: 1277-80, 1990). Tumor assessments were performed at baseline, at the end of the 4-week treatment break, then every 8 weeks.
Next, we classified the 349 samples from the AvaGlio trial for which biomarkers could be evaluated into the gene expression subtypes defined by Phillips (Cancer Cell. 9(3): 157-173, 2006).
Samples were analyzed with the same Nanostring probe set used to derive the subtype-specific centroids and expression scores for the same genes were obtained using the same technology and probe sequences. Of the 349 samples, 10 samples from patients carrying mutation(s) in the isocitrate dehydrogenase 1 (IDH1) gene, known to be associated with good prognoses, were excluded from this analysis. Of the remaining 339 IDH1 wild-type samples, raw Nanostring counts were log 2 transformed and the mean expression and standard deviation across all samples was adjusted to the same reference values applied to the training set of Example 2 above. […]

## bevacizumab: recombinant humanized anti-VEGF monoclonal antibody generated according to Presta et al.; VL SEQ ID NO: 1, VH SEQ ID NO: 2
[1]; TCGA-classified PN subtype
  OS benefit, multivariate analysis (result in words): significant OS benefit
[1]; TCGA-classified non-PN subtype
  OS benefit, multivariate analysis (result in words): do not show significant OS benefit
[2]; PN subtype (Phillips), IDH1 wild-type, 95% CI 0.24-0.72, p=0.002
  OS hazard ratio (HR), multivariate Cox proportional hazard model: 0.42
[2]; PN subtype (Phillips), n=99
  extension of median OS in the treatment arm relative to the placebo arm: about 4.9 months
[2]; PN subtype (Phillips), n=99, 95% CI 0.37-0.9, p=0.015
  PFS hazard ratio (HR), treatment arm relative to placebo arm: 0.58
[2]; PN subtype (Phillips), n=99, 95% CI 0.4-0.99, p=0.043
  OS hazard ratio (HR), treatment arm relative to placebo arm: 0.63
[2]; PN subtype (Phillips), placebo arm 12.2 months
  median OS in the treatment arm: 17.1 months
[2]; Phillips-classified PN subtype
  OS benefit, multivariate analysis (result in words): statistically significant benefit in extending OS
[2]; Phillips-classified non-PN subtype
  OS benefit, multivariate analysis (result in words): do not show significant OS benefit
[2]; Phillips-classified proneural (PN) subtype, IDH1 wild-type, n=99
  extension of median PFS in the treatment arm relative to the placebo arm: about 4.3 months
[2]; all patients, treatment arm (RT/TMZ/bevacizumab) vs placebo arm
  increase in median progression-free survival (PFS) compared to the placebo arm: about 4.4 months
[2]; all patients, treatment arm vs placebo arm
  median overall survival (OS), difference between arms: not significantly different between arms
[2]; non-PN subtype (Phillips), 95% CI 0.76-1.39, p=0.863
  OS hazard ratio (HR), multivariate Cox proportional hazard model: 1.03
[2]; patients having glioblastoma of the PN type
  PFS and OS improvement (result in words): significant PFS and OS improvement
